From PubChem BioAssay (NCI)
Where “and” joins values, the source holds several entries; their conditions need not be identical. Equal values may be shown once.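 Results reflect a 48-hour exposure of cells in 96-well plates to compound at five concentrations. GI50 is the concentration that inhibits growth by half. At the TGI there is no net growth.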

Experiments:
Experiment in all cases: NCI tumour cell line growth inhibition, 48 h
CAKI-1 renal = system: CAKI-1 renal
NCI-H23 lung = system: NCI-H23 lung
MOLT-4 leukemia = system: MOLT-4 leukemia
NCI/ADR-RES ovarian = system: NCI/ADR-RES ovarian
SK-MEL-2 melanoma = system: SK-MEL-2 melanoma
MDA-MB-231 breast = system: MDA-MB-231 breast
MALME-3M melanoma = system: MALME-3M melanoma
EKVX NSCLC = system: EKVX NSCLC
NCI-H460 lung = system: NCI-H460 lung
SK-MEL-28 melanoma = system: SK-MEL-28 melanoma
MDA-N = system: MDA-N
HOP-92 NSCLC = system: HOP-92 NSCLC
LXFL 529 NSCLC = system: LXFL 529 NSCLC
HCT-15 colon = system: HCT-15 colon
BT-549 breast = system: BT-549 breast
HCT-116 colon = system: HCT-116 colon
DLD-1 colon = system: DLD-1 colon
OVCAR-5 ovarian = system: OVCAR-5 ovarian
UO-31 renal = system: UO-31 renal
SF-268 CNS = system: SF-268 CNS
HS 578T breast = system: HS 578T breast
P388/ADR leukemia = system: P388/ADR leukemia
IGROV1 ovarian = system: IGROV1 ovarian
SK-OV-3 ovarian = system: SK-OV-3 ovarian
ACHN renal = system: ACHN renal
SW-620 colon = system: SW-620 colon
OVCAR-4 ovarian = system: OVCAR-4 ovarian
K-562 leukemia = system: K-562 leukemia
KM20L2 colon = system: KM20L2 colon
M19-MEL melanoma = system: M19-MEL melanoma
P388 leukemia = system: P388 leukemia
OVCAR-8 ovarian = system: OVCAR-8 ovarian
U251 CNS = system: U251 CNS
SF-295 CNS = system: SF-295 CNS
LOX IMVI melanoma = system: LOX IMVI melanoma
KM12 colon = system: KM12 colon
SF-539 CNS = system: SF-539 CNS
UACC-257 melanoma = system: UACC-257 melanoma
DMS 273 small cell lung = system: DMS 273 small cell lung
PC-3 prostate = system: PC-3 prostate
A549 NSCLC = system: A549 NSCLC
HCC-2998 colon = system: HCC-2998 colon
OVCAR-3 ovarian = system: OVCAR-3 ovarian
XF 498 CNS = system: XF 498 CNS
DMS 114 small cell lung = system: DMS 114 small cell lung
HL-60(TB) leukemia = system: HL-60(TB) leukemia
DU-145 prostate = system: DU-145 prostate
MCF7 breast = system: MCF7 breast
RXF 393 renal = system: RXF 393 renal
NCI-H226 lung = system: NCI-H226 lung
786-0 renal = system: 786-0 renal
NCI-H522 lung = system: NCI-H522 lung
M14 melanoma = system: M14 melanoma
SN12C renal = system: SN12C renal
RPMI-8226 leukemia = system: RPMI-8226 leukemia
SR leukemia = system: SR leukemia
UACC-62 melanoma = system: UACC-62 melanoma
A498 renal = system: A498 renal
HT29 colon = system: HT29 colon
SK-MEL-5 melanoma = system: SK-MEL-5 melanoma
COLO 205 colon = system: COLO 205 colon
MDA-MB-435 = system: MDA-MB-435
SNB-75 CNS = system: SNB-75 CNS
CCRF-CEM leukemia = system: CCRF-CEM leukemia
T-47D breast = system: T-47D breast
HOP-62 NSCLC = system: HOP-62 NSCLC

C/C=C1\C[C@@H]2C(OC)Nc3cc(O)c(OC)cc3C(=O)N2C1 (stereo not given in full)
GI50 (CAKI-1 renal): 0.00752 µM | GI50 (NCI-H23 lung): 0.00262 µM | TGI (NCI-H23 lung): 0.00892 µM | GI50 (MOLT-4 leukemia): 0.00248 µM | TGI (MOLT-4 leukemia): 0.225 µM | TGI (NCI/ADR-RES ovarian): 0.0384 µM and < 0.0116 µM | GI50 (SK-MEL-2 melanoma): 0.00288 µM | TGI (SK-MEL-2 melanoma): 0.00713 µM and < 0.0159 µM | GI50 (MDA-MB-231 breast): 0.0131 µM | TGI (MDA-MB-231 breast): 0.0626 µM and 0.375 µM | GI50 (MALME-3M melanoma): 0.00501 µM | TGI (MALME-3M melanoma): 0.0148 µM | GI50 (EKVX NSCLC): 0.0176 µM | TGI (EKVX NSCLC): 0.105 µM and 0.0346 µM | GI50 (NCI-H460 lung): 0.00356 µM | TGI (NCI-H460 lung): 0.598 µM and 1.53 µM | TGI (SK-MEL-28 melanoma): 0.0295 µM and 0.0176 µM | GI50 (MDA-N): 0.014 µM | TGI (MDA-N): 0.0319 µM and < 0.0163 µM | GI50 (HOP-92 NSCLC): 0.00738 µM | TGI (HOP-92 NSCLC): 0.129 µM and < 0.0137 µM | TGI (LXFL 529 NSCLC): 0.209 µM | GI50 (HCT-15 colon): 0.00733 µM | TGI (BT-549 breast): 0.0151 µM and 0.0269 µM | GI50 (HCT-116 colon): 0.0172 µM | TGI (DLD-1 colon): 20 µM | GI50 (OVCAR-5 ovarian): 0.00775 µM | TGI (OVCAR-5 ovarian): 0.0632 µM and 0.306 µM | GI50 (UO-31 renal): 0.00222 µM | GI50 (SF-268 CNS): 0.0027 µM | TGI (SF-268 CNS): 0.174 µM and 1.71 µM | TGI (HS 578T breast): 0.0575 µM and < 0.0282 µM | TGI (P388/ADR leukemia): 0.0104 µM | GI50 (IGROV1 ovarian): 0.0159 µM | TGI (IGROV1 ovarian): 0.906 µM and 2.84 µM | GI50 (SK-OV-3 ovarian): 0.00827 µM | TGI (SK-OV-3 ovarian): 2.37 µM | TGI (ACHN renal): 0.0294 µM | GI50 (SW-620 colon): 0.00703 µM | TGI (SW-620 colon): 36.8 µM | GI50 (OVCAR-4 ovarian): 0.00355 µM | TGI (OVCAR-4 ovarian): < 0.0172 µM and 0.0101 µM | GI50 (K-562 leukemia): 0.00347 µM | TGI (K-562 leukemia): 2.74 µM | TGI (KM20L2 colon): 0.0909 µM and 0.045 µM | TGI (M19-MEL melanoma): 0.0413 µM and 0.0101 µM | TGI (P388 leukemia): < 0.0123 µM | GI50 (OVCAR-8 ovarian): 0.00804 µM | TGI (OVCAR-8 ovarian): 0.61 µM and 1.03 µM | GI50 (U251 CNS): 0.00353 µM | TGI (U251 CNS): 10.1 µM | GI50 (SF-295 CNS): 0.00328 µM | TGI (SF-295 CNS): 0.467 µM and 1.43 µM | GI50 (LOX IMVI melanoma): 0.0035 µM | TGI (LOX IMVI melanoma): 0.0825 µM | TGI (KM12 colon): 0.34 µM and 0.0408 µM | GI50 (SF-539 CNS): 0.00315 µM | TGI (SF-539 CNS): 0.00892 µM and < 0.0283 µM | TGI (UACC-257 melanoma): 0.0413 µM and < 0.0126 µM | TGI (DMS 273 small cell lung): 0.0917 µM and < 0.0143 µM | GI50 (PC-3 prostate): 0.0221 µM | TGI (PC-3 prostate): 0.404 µM and 0.478 µM | GI50 (A549 NSCLC): 0.0215 µM | TGI (A549 NSCLC): > 100 µM | GI50 (HCC-2998 colon): < 0.0178 µM | TGI (HCC-2998 colon): 0.0358 µM and 0.023 µM | GI50 (OVCAR-3 ovarian): 0.00419 µM | TGI (OVCAR-3 ovarian): 0.0341 µM | GI50 (XF 498 CNS): 0.00191 µM | TGI (XF 498 CNS): 0.00398 µM | TGI (DMS 114 small cell lung): 0.0035 µM | GI50 (HL-60(TB) leukemia): 0.00226 µM | TGI (HL-60(TB) leukemia): 0.216 µM and 0.0852 µM | GI50 (DU-145 prostate): 0.00348 µM | TGI (DU-145 prostate): 0.0248 µM and 0.21 µM | GI50 (MCF7 breast): 0.00692 µM | TGI (MCF7 breast): 2.83 µM | GI50 (RXF 393 renal): 0.00101 µM | TGI (RXF 393 renal): 0.00219 µM | GI50 (NCI-H226 lung): 0.116 µM | TGI (NCI-H226 lung): 0.728 µM and 0.163 µM | GI50 (786-0 renal): 0.00529 µM | GI50 (NCI-H522 lung): 0.00119 µM | TGI (NCI-H522 lung): 0.00432 µM | TGI (M14 melanoma): 0.0428 µM and < 0.032 µM | GI50 (SN12C renal): 0.00625 µM | GI50 (RPMI-8226 leukemia): 0.00269 µM | TGI (SR leukemia): 0.0602 µM | GI50 (UACC-62 melanoma): 0.00284 µM | TGI (UACC-62 melanoma): 0.00948 µM | TGI (A498 renal): 0.0834 µM | GI50 (HT29 colon): 0.0075 µM | TGI (HT29 colon): 0.16 µM and < 0.215 µM | GI50 (SK-MEL-5 melanoma): 0.00327 µM | TGI (SK-MEL-5 melanoma): 0.00889 µM | TGI (COLO 205 colon): 0.0212 µM | GI50 (MDA-MB-435): 0.00819 µM | TGI (MDA-MB-435): 0.0623 µM and < 0.0106 µM | GI50 (SNB-75 CNS): 0.00482 µM | TGI (SNB-75 CNS): 0.0205 µM and 0.0167 µM | GI50 (CCRF-CEM leukemia): 0.00229 µM | TGI (CCRF-CEM leukemia): 0.103 µM and 0.349 µM | TGI (T-47D breast): 0.0783 µM and < 0.0265 µM | GI50 (HOP-62 NSCLC): 0.00296 µM | TGI (HOP-62 NSCLC): 0.0155 µM and < 0.0566 µM
